Measurements taken from publication PMC3473092 (Science (New York, N.Y.), 2011).
Entries after “also recorded” stand apart in the source; their conditions may differ. Like-named read-outs stand apart in the source and are kept apart here.

Experiments:
P. yoelii EEF = assay: P. yoelii liver-stage; type: cell-based, Plasmodium yoelii; conditions: for Median parasite area: ±SD, DMSO control 160 to 180 μm^2, smallest size detected 9 μm^2; for IC50: Plasmodium yoelii, 48 h, read-out: P. yoelii EEF IC50; for activity against EEFs (in words): P. yoelii liver assay; for efficacy when compound added 15 and 27 hours post-invasion: end-point 51 hpi, Fig. 2C
HepG2-A16-CD81EGFP cells = assay: HepG2-A16-CD81EGFP inhibition; type: cell-based; conditions: Homo sapiens, HepG2, read-out: HepG2 inhibition IC50
[1] = test system: P. falciparum W2 parasites; assay: Blood-stage SYBR green assay, P. falciparum W2; type: cell-based; conditions: Plasmodium falciparum, W2, read-out: Blood IC50
Plasmodium berghei [2] = assay: P. berghei blood-stage mouse model, single oral dose; type: in vivo; conditions: for average survival times: mice infected with P. berghei, single oral dose at 100 mg/kg
P. berghei sporozoites = assay: Rodent malaria model of causal prophylactic treatment; type: in vivo, Plasmodium berghei; conditions: for blood stage parasitemia in later blood smear examinations / in vivo bioluminescence signal of developing parasite: GNF179 15 mg/kg, atovaquone 2.5 mg/kg, treated at 6 hpi, Fig. 2D
[3] = test system: P. falciparum blood stages; assay: P. falciparum blood stage cultures in vitro; type: cell-based, Plasmodium falciparum; conditions: text b23, strain not given
[4] = test system: parasite protein biosynthesis; assay: Parasite protein biosynthesis inhibition; type: cell-based; conditions: Fig. S4
[5] = test system: strains having mutations making them resistant to atovaquone and pyrimethamine; assay: Cross-resistance with strains resistant to liver-stage drugs; type: cell-based; conditions: Table S6
[6] = mouse
[7] = mouse, in vivo, po
Plasmodium berghei [8] = conditions: 100 mg/kg oral dose; cited from earlier work
[9] = 5 p.o. mg/kg, 1–3 hours prior to sporozoite injection
[10] = 15 p.o. mg/kg, 1–3 hours prior to sporozoite injection
[11] = 15 p.o. mg/kg, six hours after infection
[12] = 30 p.o. mg/kg, 1–3 hours prior to sporozoite injection

CCN(CC)CCCC(C)Nc1ccnc2cc(Cl)ccc12 (stereo not shown) [Chloroquine]
Median parasite area (P. yoelii EEF; 1 μM): 65.4±9.5 μm^2 | Median parasite area (P. yoelii EEF; 10 μM): < 9 μm^2 | IC50 (P. yoelii EEF): 1650 nM | IC50 (HepG2-A16-CD81EGFP cells): 1.6 ± 0.3 µM | IC50 [1]: 84 ± 3 nM | average survival times (Plasmodium berghei [2]): 12.5 days

C[C@@H]1CC[C@H]2[C@@H](C)C(=O)O[C@@H]3O[C@@]4(C)CC[C@@H]1[C@]32OO4 [Artemisinin]
activity against EEFs (in words) (P. yoelii EEF): inactive | IC50 (P. yoelii EEF): > 10000 nM | IC50 (HepG2-A16-CD81EGFP cells): > 10 µM | IC50 [1]: 3.3 ± 0.4 nM

COc1ccc2cc3[n+](cc2c1OC)CCc1cc2c(cc1-3)OCO2 [Berberine]
Median parasite area (P. yoelii EEF; 1 μM): 46.4±7.0 μm^2 | Median parasite area (P. yoelii EEF; 10 μM): 22.4±2.3 μm^2 | activity against EEFs (in words) (P. yoelii EEF): confirmed as active | IC50 (P. yoelii EEF): 224 ± 152 nM | IC50 (HepG2-A16-CD81EGFP cells): 2.6 ± 0.5 µM | IC50 [1]: 117 ± 9 nM

COc1cc(NC(C)CCCN)c2ncccc2c1 (stereo not shown) [Primaquine]
Median parasite area (P. yoelii EEF; 1 μM): 56.8±15.6 μm^2 | Median parasite area (P. yoelii EEF; 10 μM): < 9 μm^2 | activity against EEFs (in words) (P. yoelii EEF): confirmed as active | IC50 (P. yoelii EEF): 1160 nM | IC50 (HepG2-A16-CD81EGFP cells): 6.1 ± 1.9 µM | IC50 [1]: 317 ± 60 nM

CCc1nc(N)nc(N)c1-c1ccc(Cl)cc1 [Pyrimethamine]
efficacy when compound added 15 and 27 hours post-invasion (P. yoelii EEF; 1 μM): the parasites grew to normal size | Median parasite area (P. yoelii EEF; 1 μM): 31.1±0.7 μm^2 | Median parasite area (P. yoelii EEF; 10 μM): 29.6±2.0 μm^2 | activity against EEFs (in words) (P. yoelii EEF): confirmed as active | IC50 (P. yoelii EEF): 2.4 ± 1.6 nM | IC50 (HepG2-A16-CD81EGFP cells): 6.3 ± 3.3 µM | IC50 [1]: 15 ± 2 nM

C[C@@H]1C[C@@H]([C@H](O)CC2CC(=O)NC(=O)C2)C(=O)[C@@H](C)C1 [Cycloheximide]
Median parasite area (P. yoelii EEF; 1 μM): <9 μm^2 | Median parasite area (P. yoelii EEF; 10 μM): <9 μm^2 | IC50 (HepG2-A16-CD81EGFP cells): 0.22 ± 0.1 µM | IC50 [1]: 366 ± 69 nM

GNF179
efficacy when compound added 15 and 27 hours post-invasion (P. yoelii EEF; 1 μM): remained active later in EEF development | mouse survival prolonged by an average of (Plasmodium berghei [2]; single 100 mg/kg oral dose): 19 days | reduction of Plasmodium berghei parasitemia levels (Plasmodium berghei [2]; single 100 mg/kg oral dose, mice): 99.7% | Average Survival (%) (P. berghei sporozoites; [9]): 20% | Prepatent Period (P. berghei sporozoites; [9]): 4.2 days | Average Survival (%) (P. berghei sporozoites; [10]): 100% | Average Survival (%) (P. berghei sporozoites; [11]): 80% | Prepatent Period (P. berghei sporozoites; [11]): 6.2 days | Average Survival (%) (P. berghei sporozoites; 20 p.o. mg/kg, 1–3 hours prior to sporozoite injection): 100% | blood stage parasitemia in later blood smear examinations (P. berghei sporozoites): no blood stage parasitemia was detected | in vivo bioluminescence signal of developing parasite (P. berghei sporozoites): No luminescence signal was detected | potency against P. falciparum blood stages [3]: 7 nM | inhibition of parasite protein biosynthesis [4]: does not rapidly inhibit parasite protein biosynthesis | cross-resistance [5]: no cross-resistance | clearance CL ([6]; in vivo): 22 mL/min/kg | clearance as share of hepatic blood flow in mice ([6]; in vivo): ~ 25% | residence time MRT ([6]; in vivo): 9 h | steady-state volume of distribution Vss ([6]; in vivo): 11.8 L/kg | terminal half-life t1/2 ([6]; in vivo): 8.9 h | in vivo oral bioavailability ([6]; po): 58% | Cmax ([7]; 15 mg/kg): 55 µM | Cmax ([7]; 100 mg/kg): 193 µM | half-life in liver ([7]; 100 mg/kg): 7 to 9 h

CO[C@@H]1C(=O)CC[C@]2(CO2)[C@@]1(O)[C@@]1(C)O[C@@H]1CC=C(C)C [Ovalicin]
Median parasite area (P. yoelii EEF; 1 μM): 35.1±3.1 μm^2 | Median parasite area (P. yoelii EEF; 10 μM): 19.1±0.9 μm^2 | effect on the infection ratio (P. yoelii EEF; Fig. 1E): no drug effect is seen; also recorded: no measurable effect | activity against EEFs (in words) (P. yoelii EEF): confirmed as active | IC50 (P. yoelii EEF): 0.7 ± 0.3 nM | IC50 (HepG2-A16-CD81EGFP cells): > 10 µM | IC50 [1]: > 10000 nM

CC[C@@H](C(=O)[C@@H](C)[C@@H](O)[C@H](C)CCc1ccc(C)c(O)c1C(=O)O)[C@H]1O[C@](CC)([C@H]2CC[C@](O)(CC)[C@H](C)O2)C[C@@H]1C [Lasalocid]
efficacy when compound added 15 and 27 hours post-invasion (P. yoelii EEF; 1 μM): remained active later in EEF development | Median parasite area (P. yoelii EEF; 1 μM): < 9 μm^2 | Median parasite area (P. yoelii EEF; 10 μM): < 9 μm^2 | activity against EEFs (in words) (P. yoelii EEF): confirmed as active | IC50 (P. yoelii EEF): 37 ± 20 nM | IC50 (HepG2-A16-CD81EGFP cells): 3.9 ± 1.4 µM | IC50 [1]: 50 ± 8 nM

OC(c1cc(C(F)(F)F)nc2c(C(F)(F)F)cccc12)C1CCCCN1 (stereo not shown) [Mefloquine]
Median parasite area (P. yoelii EEF; 1 μM): 65.4±4.7 μm^2 | Median parasite area (P. yoelii EEF; 10 μM): < 9 μm^2 | activity against EEFs (in words) (P. yoelii EEF): marginal activity | IC50 (P. yoelii EEF): 3270 nM | IC50 (HepG2-A16-CD81EGFP cells): 3.1 ± 0.6 µM | IC50 [1]: 9.5 ± 10 nM

O=C1C(O)=C([C@H]2CC[C@H](c3ccc(Cl)cc3)CC2)C(=O)c2ccccc21 [Atovaquone]
efficacy when compound added 15 and 27 hours post-invasion (P. yoelii EEF; 1 μM): remained active later in EEF development | Median parasite area (P. yoelii EEF; 1 μM): 18.2±1.0 μm^2 | Median parasite area (P. yoelii EEF; 10 μM): 18.6±1.0 μm^2 | activity against EEFs (in words) (P. yoelii EEF): confirmed as active | IC50 (P. yoelii EEF): 9.4 ± 15 nM | IC50 (HepG2-A16-CD81EGFP cells): 9.5 ± 2.5 µM | IC50 [1]: 2.2 ± 0.4 nM | Average Survival (%) (P. berghei sporozoites; 2.5 p.o. mg/kg, 1–3 hours prior to sporozoite injection): 100% | Average Survival (%) (P. berghei sporozoites; 2.5 p.o. mg/kg, six hours after infection): 100% | blood stage parasitemia in later blood smear examinations (P. berghei sporozoites): no blood stage parasitemia was detected | in vivo bioluminescence signal of developing parasite (P. berghei sporozoites): No luminescence signal was detected

C[C@H]1Cc2c([nH]c3cc(Cl)c(F)cc23)[C@@]2(N1)C(=O)Nc1ccc(Cl)cc12 [NITD609]
activity against EEFs (in words) (P. yoelii EEF): inactive | Average Survival (%) (P. berghei sporozoites; [10]): 0% | Prepatent Period (P. berghei sporozoites; [10]): 4.5 days | Average Survival (%) (P. berghei sporozoites; [12]): 0% | Prepatent Period (P. berghei sporozoites; [12]): 4.2 days | potency against P. falciparum blood stages [3]: ~ 1 nM | cure in a blood-stage animal model (Plasmodium berghei [8]): fully curative

CCCCCCCCCCOc1cc2c(O)c(C(=O)OCC)cnc2cc1OCC [Decoquinate]
Median parasite area (P. yoelii EEF; 1 μM): 17.7±0.3 μm^2 | Median parasite area (P. yoelii EEF; 10 μM): 18.8±4.7 μm^2 | IC50 (P. yoelii EEF): 0.16 ± 0.02 nM | IC50 (HepG2-A16-CD81EGFP cells): > 10 µM | IC50 [1]: 0.25 ± 0.06 nM

C[C@H]1[C@H](OC(=O)CCC(=O)O)O[C@@H]2O[C@@]3(C)CC[C@H]4[C@H](C)CC[C@@H]1[C@@]24OO3 [artesunate]
average survival times (Plasmodium berghei [2]): 7 days
